Source: US9475817B2 (BRISTOL-MYERS SQUIBB COMPANY, priority 2012, dated 2016)

Columns and labels:
CK1ε = CK1ε (Homo sapiens (Human), UniProt P49674); assay: CK1ε kinase assay (Caliper LabChip, fluoresceinated peptide substrate); assay type: biochemical; details: 200 pM CK1ε, 50 μM ATP, 1.5 μM peptide substrate, 22 hours room temperature
Method: (§1) CK1ε and CK1δ Kinase Assays
(§2) The kinase assay was performed in V-bottom 384-well plates. […] The reaction was incubated at room temperature for 22 hours and terminated by adding 45 μl of 35 mM EDTA to each sample. […] Compounds were dissolved at 10 mM in dimethylsulfoxide (DMSO) and evaluated at eleven concentrations. IC50 values were derived by non-linear regression analysis.

CK1δ = CK1δ (Homo sapiens (Human), UniProt P48730); assay: CK1δ kinase assay (Caliper LabChip, fluoresceinated peptide substrate); assay type: biochemical; details: 200 pM CK1δ, 50 μM ATP, 1.5 μM peptide substrate, 22 hours room temperature
Method: as §1, §2

CK1ε, sequence (P49674 whole entry): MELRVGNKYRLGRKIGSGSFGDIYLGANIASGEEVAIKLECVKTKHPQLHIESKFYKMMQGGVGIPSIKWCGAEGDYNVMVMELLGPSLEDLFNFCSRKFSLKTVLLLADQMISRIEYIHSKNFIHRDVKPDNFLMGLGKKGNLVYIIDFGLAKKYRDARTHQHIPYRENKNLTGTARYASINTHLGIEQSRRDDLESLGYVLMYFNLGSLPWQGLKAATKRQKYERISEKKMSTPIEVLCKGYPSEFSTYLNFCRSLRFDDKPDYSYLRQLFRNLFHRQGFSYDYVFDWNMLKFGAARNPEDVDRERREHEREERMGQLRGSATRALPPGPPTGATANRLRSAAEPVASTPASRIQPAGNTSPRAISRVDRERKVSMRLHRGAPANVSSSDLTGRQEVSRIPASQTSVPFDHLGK
CK1δ, sequence (P48730 whole entry): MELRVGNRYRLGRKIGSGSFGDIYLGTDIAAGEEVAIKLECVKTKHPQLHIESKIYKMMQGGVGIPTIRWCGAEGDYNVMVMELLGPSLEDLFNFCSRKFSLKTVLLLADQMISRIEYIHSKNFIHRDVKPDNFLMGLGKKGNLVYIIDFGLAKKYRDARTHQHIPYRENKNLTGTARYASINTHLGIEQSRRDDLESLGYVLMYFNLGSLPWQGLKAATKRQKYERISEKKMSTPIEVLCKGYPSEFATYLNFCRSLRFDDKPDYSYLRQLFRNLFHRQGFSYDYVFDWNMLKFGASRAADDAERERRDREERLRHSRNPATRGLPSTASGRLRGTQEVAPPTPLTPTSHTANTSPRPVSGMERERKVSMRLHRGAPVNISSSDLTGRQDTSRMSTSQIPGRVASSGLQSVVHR

IC50 (CK1ε) [nM] | IC50 (CK1δ) [nM] | Compound
42 | 11.8 | Cn1cc(-c2ccc3nc(NC(=O)c4ccccn4)cn3n2)c(-c2ccc(F)cc2)n1 [Compound 96, N-(6-(3-(4-fluorophenyl)-1-methyl-1H-pyrazol-4-yl)imidazo[1,2-b]pyridazin-2-yl)picolinamide]
47.3 | 10.3 | Cn1cc(-c2ccc3nc(NC(=O)CC(F)(F)F)cn3n2)c(-c2ccc(F)cc2)n1 [Compound 99, 3,3,3-trifluoro-N-(6-(3-(4-fluorophenyl)-1-methyl-1H-pyrazol-4-yl)imidazo[1,2-b]pyridazin-2-yl)propanamide]
28.8 | 9.4 | Cn1cc(-c2ccc3nc(NC(=O)c4cc(O)ncn4)cn3n2)c(-c2ccc(F)cc2)n1 [Compound 100, N-(6-(3-(4-fluorophenyl)-1-methyl-1H-pyrazol-4-yl)imidazo[1,2-b]pyridazin-2-yl)-6-hydroxypyrimidine-4-carboxamide]
170 | 28.1 | O=C(Nc1cn2nc(-c3cn(C4CC4)nc3-c3ccc(F)cc3)ccc2n1)C1CC1 [Compound 101, N-(6-(1-Cyclopropyl-3-(4-fluorophenyl)-1H-pyrazol-4-yl)imidazo[1,2-b]pyridazin-2-yl)cyclopropanecarboxamide]
9.9 | 3 | O=C(Nc1cn2nc(-c3cn(C4CC4)nc3-c3ccc(F)cc3)ccc2n1)c1ccncc1 [Compound 102, N-(6-(1-Cyclopropyl-3-(4-fluorophenyl)-1H-pyrazol-4-yl)imidazo[1,2-b]pyridazin-2-yl)isonicotinamide]
74.9 | 8.5 | O=C(Nc1cn2nc(-c3cn(C4CC4)nc3-c3ccc(F)cc3)ccc2n1)c1csc(-c2ccncc2)n1 [Compound 103, N-(6-(1-Cyclopropyl-3-(4-fluorophenyl)-1H-pyrazol-4-yl)imidazo[1,2-b]pyridazin-2-yl)-2-(pyridin-4-yl)thiazole-4-carboxamide]
15.2 | 3.2 | O=C(Nc1cn2nc(-c3cn(C4CC4)nc3-c3ccc(F)cc3)ccc2n1)c1ccnc(F)c1 [Compound 104, N-(6-(1-cyclopropyl-3-(4-fluorophenyl)-1H-pyrazol-4-yl)imidazo[1,2-b]pyridazin-2-yl)-2-fluoroisonicotinamide]
46.5 | 4.8 | O=C(Nc1cn2nc(-c3cn(C4CC4)nc3-c3ccc(F)cc3)ccc2n1)c1cc(F)nc(F)c1 [Compound 105, N-(6-(1-cyclopropyl-3-(4-fluorophenyl)-1H-pyrazol-4-yl)imidazo[1,2-b]pyridazin-2-yl)-2,6-difluoroisonicotinamide]
14 | 3.5 | O=C(Nc1cn2nc(-c3cn(C4CC4)nc3-c3ccc(F)cc3)ccc2n1)c1ccncc1F [Compound 106, N-(6-(1-cyclopropyl-3-(4-fluorophenyl)-1H-pyrazol-4-yl)imidazo[1,2-b]pyridazin-2-yl)-3-fluoroisonicotinamide]
32.6 | 2 | O=C(Nc1cn2nc(-c3cn(C4CC4)nc3-c3ccc(F)cc3)ccc2n1)c1cccc(-c2cccnc2)c1 [Compound 108, N-(6-(1-cyclopropyl-3-(4-fluorophenyl)-1H-pyrazol-4-yl)imidazo[1,2-b]pyridazin-2-yl)-3-(pyridin-3-yl) benzamide]
12.3 | 2.5 | Cc1nc(-c2cccnc2)sc1C(=O)Nc1cn2nc(-c3cn(C4CC4)nc3-c3ccc(F)cc3)ccc2n1 [Compound 109, N-(6-(1-cyclopropyl-3-(4-fluorophenyl)-1H-pyrazol-4-yl)imidazo[1,2-b]pyridazin-2-yl)-4-methyl-2-(pyridin-3-yl)thiazole-5-carboxamide]
28.8 | 5.5 | Cc1nc(-c2ccccn2)sc1C(=O)Nc1cn2nc(-c3cn(C4CC4)nc3-c3ccc(F)cc3)ccc2n1 [Compound 110, N-(6-(1-cyclopropyl-3-(4-fluorophenyl)-1H-pyrazol-4-yl)imidazo[1,2-b]pyridazin-2-yl)-4-methyl-2-(pyridin-2-yl)thiazole-5-carboxamide]
35 | 6.2 | Cc1nc(-c2ccncc2)sc1C(=O)Nc1cn2nc(-c3cn(C4CC4)nc3-c3ccc(F)cc3)ccc2n1 [Compound 111, N-(6-(1-cyclopropyl-3-(4-fluorophenyl)-1H-pyrazol-4-yl)imidazo[1,2-b]pyridazin-2-yl)-4-methyl-2-(pyridin-4-yl)thiazole-5-carboxamide]
2.3 | 0.6 | Cn1nc(-c2ccc(F)cc2)c(-c2ccc3nc(NC(=O)c4ccnc(F)c4)cn3n2)c1N1CCNCC1 [Compound 113, 2-fluoro-N-(6-(3-(4-fluorophenyl)-1-methyl-5-(piperazin-1-yl)-1H-pyrazol-4-yl)imidazo[1,2-b]pyridazin-2-yl)isonicotinamide]
9.3 | 0.7 | CN1CCN(c2c(-c3ccc4nc(NC(=O)c5ccnc(F)c5)cn4n3)c(-c3ccc(F)cc3)nn2C)CC1 [Compound 116, 2-fluoro-N-(6-(3-(4-fluorophenyl)-1-methyl-5-(4-methylpiperazin-1-yl)-1H-pyrazol-4-yl)imidazo [1,2-b]pyridazin-2-yl)isonicotinamide]
3.6 | 0.8 | COc1cc(C(=O)Nc2cn3nc(-c4c(-c5ccc(F)cc5)nn(C)c4N4CCNCC4)ccc3n2)ccn1 [Compound 118, N-(6-(3-(4-Fluorophenyl)-1-methyl-5-(piperazin-1-yl)-1H-pyrazol-4-yl)imidazo[1,2-b]pyridazin-2-yl)-2-methoxyisonicotinamide]
10.1 | 0.3 | Cn1nc(-c2ccc(F)cc2)c(-c2ccc3nc(NC(=O)c4ccnc(F)c4)cn3n2)c1N1CCN(CCCF)CC1 [Compound 119, 2-Fluoro-N-(6-(3-(4-fluorophenyl)-5-(4-(3-fluoropropyl)piperazin-1-yl)-1-methyl-1H-pyrazol-4-yl)imidazo[1,2-b]pyridazin-2-yl)isonicotinamide]
18.6 | 0.73 | COCCN1CCN(c2c(-c3ccc4nc(NC(=O)c5ccnc(F)c5)cn4n3)c(-c3ccc(F)cc3)nn2C)CC1 [Compound 120, 2-Fluoro-N-(6-(3-(4-fluorophenyl)-5-(4-(2-methoxyethyl)piperazin-1-yl)-1-methyl-1H-pyrazol-4-yl)imidazo[1,2-b]pyridazin-2-yl)isonicotinamide]
14.4 | 1.2 | Cn1nc(-c2ccc(F)cc2)c(-c2ccc3nc(NC(=O)c4ccnc(F)c4)cn3n2)c1N1CCN(C(=O)CC(F)(F)F)CC1 [Compound 121, 2-Fluoro-N-(6-(3-(4-fluorophenyl)-1-methyl-5-(4-(3,3,3-trifluoropropanoyl)piperazin-1-yl)-1H-pyrazol-4-yl)imidazo[1,2-b]pyridazin-2-yl)isonicotinamide]
0.2 | 0.1 | Cn1nc(-c2ccc(F)cc2)c(-c2ccc3nc(NC(=O)c4ccnc(F)c4)cn3n2)c1N1CCN(C(=O)CN)CC1 [Compound 123, N-(6-(5-(4-(2-Aminoacetyl)piperazin-1-yl)-3-(4-fluorophenyl)-1-methyl-1H-pyrazol-4-yl)imidazo[1,2-b]pyridazin-2-yl)-2-fluoroisonicotinamide]
